Source: patent US20250324977A1, “ENGINEERED BACTERIA FOR ENHANCED CROP PRODUCTION” (The Regents of the University of California, priority 2022, published 2025)

Tests used:
Arabidopsis roots = details: in vivo; cited from earlier work
Arabidopsis = assay: Combinatorial root growth assay with plant growth media supplied with Trp; assay type: in vivo
Procedure: To further test this hypothesis, we supplied plant growth media with Trp (FIG. 4, FIGS. 13 and 14) and repeated the combinatorial assay. […] In contrast, root growth might improve if the WCS417 strain are metabolically active only around the root tips. […] However, at 10 μM, Trp inhibited the root growth of plants colonized with the wild-type WCS417 strain. […] Additionally, we inoculated the engineered strains to the Trp-overproducing Arabidopsis mutant line. Root growth and development of this Arabidopsis mutant line are not also impaired (FIG. 4).
First, Arabidopsis seeds are sterilized with 70% ethanol for 2 min and 10% bleach for 5 min. These seeds are rinsed five times with sterile water. Sterilized seeds are kept in a 4° C. fridge for 3 days and then are horizontally individually dispensed on the surface of 1/2 MS agar plates. The plates are vertically incubated in a plant growth chamber under a light cycle of 8 h dark and 16 h light for 6 days. […] On the following day, cultures are washed three times with sterile 10 mM MgCl2 solution and measured for values at OD600nm using an Eppendorf Spectro reader. Uniformly germinated 6-day-old seedlings are inoculated with 1 μL of OD600nm=0.2 culture of engineered WCS417 strains. […] Collected photos are analyzed using EZ-Root-VIS software (Shahzad et al., 2018) for primary root length, lateral root number, and total length.

Question: For `O=C(O)Cc1c[nH]c2ccccc12` [IAA, Indole-3-acetic acid], which “level of externally added IAA that significantly changes root phenotypes” value (Arabidopsis roots) is on record?
Answer: 0.01 to 0.1 µM

Question: Which root growth (Arabidopsis; 0.1 μM of Trp in plant growth media) does the source give for `N[C@@H](Cc1c[nH]c2ccccc12)C(=O)O` [Trp, tryptophan] here?
Answer: did not see much impact

Question: What about the “root growth of plants colonized with the wild-type WCS417 strain” value (Arabidopsis; 10 μM Trp in plant growth media) of the same compound?
Answer: inhibited
